From patent US11851440B2, “Modulators of eukaryotic initiation factor 2B, compositions and methods” (Denali Therapeutics Inc., priority 2017, dated 2023)

Tested on: ISR pathway (ATF4 translation)
Assay: ATF4 Nano Luciferase reporter integrated stress response (ISR) assay in H4 ATF4-NLuc cells
Details: Homo sapiens, H4 ATF4-NLuc (clone 17) cells; compound 30 minutes, then 50 um sodium arsenite for 6 hours; luminescence readout

IC50, 9.2 nM:
O=C(NC12CC(c3nnc([C@H]4C[C@@H](OC(F)(F)F)C4)o3)(C1)C2)C1CCc2cc(Cl)ccc2O1 (single isomer, unassigned) [Example 157, 6-chloro-N-(3-(5-(3-cis-(trifluoromethoxy)cyclobutyl)-1,3,4-oxadiazol-2-yl)bicyclo[1.1.1]pentan-1-yl)chroman-2-carboxamide]
O=C(COc1ccc(Cl)cc1)NC12CC(c3nnc([C@H]4C[C@@H](OC(F)(F)F)C4)o3)(C1)C2 [Example 3, 2-(4-chlorophenoxy)-N-[3-[5-[cis-3-(trifluoromethoxy)cyclobutyl]-1,3,4-oxadiazol-2-yl]-1-bicyclo[1.1.1]pentanyl]acetamide]

IC50, 2.5 nM:
O=C(COc1ccc(Cl)c(F)c1)NC12CC(c3nnc([C@H]4C[C@@H](OC(F)(F)F)C4)o3)(C1)C2 [Example 6, 2-(4-chloro-3-fluoro-phenoxy)-N-[1-[5-[cis-3-(trifluoromethoxy)cyclobutyl]-1,3,4-oxadiazol-2-yl]-3-bicyclo[1.1.1]pentanyl]acetamide]

Same assay, conditions: Homo sapiens, read-out: Activity (IC50), H4 ATF4-NLuc (clone 17) cells; compound 30 minutes, then 50 um sodium arsenite for 6 hours; luminescence readout

IC50, 1000 to 10000 nM:
O=C(COc1ccc(Cl)c(F)c1)NC12CC(c3nnc([C@H]4C[C@H]4C(F)F)o3)(C1)C2 (single isomer, unassigned) [Example 85, 2-(4-chloro-3-fluoro-phenoxy)-N-[3-[5-[2-cis-(difluoromethyl)cyclopropyl]-1,3,4-oxadiazol-2-yl]-1-bicyclo[1.1.1]pentanyl]acetamide]
O=C(COc1ccc(Cl)cc1)NC12CC(c3nnc(C4CCOC4)o3)(C1)C2 (stereo not shown) [Example 1, 2-(4-Chlorophenoxy)-N-[3-(5-tetrahydrofuran-3-yl-1,3,4-oxadiazol-2-yl)-1-bicyclo[1.1.1]pentanyl]acetamide]
O=C(COc1ccc(Cl)cc1)NC12CC(c3nnc(C4CCCO4)o3)(C1)C2 (stereo not shown) [Example 2, 2-(4-Chlorophenoxy)-N-[3-(5-tetrahydrofuran-2-yl-1,3,4-oxadiazol-2-yl)-1-bicyclo[1.1.1]pentanyl]acetamide]
O=C(COc1ccc(Cl)cc1)NC12CC(c3nnc(CC(F)(F)F)o3)(C1)C2 [Example 4, 2-(4-chlorophenoxy)-N-[3-[5-(2,2,2-trifluoroethyl)-1,3,4-oxadiazol-2-yl]-1-bicyclo[1.1.1]pentanyl]acetamide]

IC50, < 1000 nM:
O=C(COc1ccc(Cl)c(F)c1)NC12CC(c3nnc(C4C[C@H]4COC(F)(F)F)o3)(C1)C2 (mixture of isomers) [Example 80, 2-(4-chloro-3-fluoro-phenoxy)-N-[3-[5-[2-trans-(trifluoromethoxymethyl)cyclopropyl]-1,3,4-oxadiazol-2-yl]-1-bicyclo[1.1.1]pentanyl]acetamide]
C[C@H]1C[C@@H]1c1nnc(C23CC(NC(=O)COc4ccc(Cl)c(F)c4)(C2)C3)o1 (relative stereo) [Example 9, 2-(4-chloro-3-fluoro-phenoxy)-N-[1-[5-[(trans)-2-methylcyclopropyl]-1,3,4-oxadiazol-2-yl]-3-bicyclo[1.1.1]pentanyl]acetamide]
N#C[C@H]1C[C@@H](n2cc(C34CC(NC(=O)COc5ccc(Cl)c(F)c5)(C3)C4)nn2)C1 (relative stereo) [Example 35, 2-(4-chloro-3-fluorophenoxy)-N-(3-(1-((cis)-3-cyanocyclobutyl)-1H-1,2,3-triazol-4-yl)bicyclo[1.1.1]pentan-1-yl)acetamide]
N#C[C@H]1C[C@@H](n2ncc(C34CC(NC(=O)COc5ccc(Cl)c(F)c5)(C3)C4)n2)C1 (relative stereo) [Example 36, 2-(4-chloro-3-fluorophenoxy)-N-(3-(2-((cis)-3-cyanocyclobutyl)-2H-1,2,3-triazol-4-yl)bicyclo[1.1.1]pentan-1-yl)acetamide]
O=C(COc1ccc(Cl)c(F)c1)NC12CC(c3cnn(C4CCC4)n3)(C1)C2 (single isomer, unassigned) [Example 19, 2-(4-Chloro-3-fluoro-phenoxy)-N-[1-(2-cyclobutyltriazol-4-yl)-3-bicyclo[1.1.1]pentanyl]acetamide]
O=C(COc1ccc(Cl)c(F)c1)NC12CC(c3cn(C4CCC4)nn3)(C1)C2 (single isomer, unassigned) [Example 20, 2-(4-chloro-3-fluoro-phenoxy)-N-[1-(1-cyclobutyltriazol-4-yl)-3-bicyclo[1.1.1]pentanyl]acetamide]
O=C(COc1ccc(Cl)c(F)c1)NC12CC(c3nnc(C4C[C@H]4COC(F)(F)F)o3)(C1)C2 (single isomer, unassigned) [Example 82, 2-(4-chloro-3-fluoro-phenoxy)-N-[3-[5-[2-trans-(trifluoromethoxymethyl)cyclopropyl]-1,3,4-oxadiazol-2-yl]-1-bicyclo[1.1.1]pentanyl]acetamide]
O=C(COc1ccc(Cl)c(F)c1)NC12CC(c3nnc([C@H]4C[C@@H]4C(F)F)o3)(C1)C2 (single isomer, unassigned) [Example 84, 2-(4-chloro-3-fluoro-phenoxy)-N-[3-[5-[2-trans-(difluoromethyl)cyclopropyl]-1,3,4-oxadiazol-2-yl]-1-bicyclo[1.1.1]pentanyl]acetamide]
O=C(NC12CC(c3nnc([C@H]4C[C@@H](OC(F)(F)F)C4)o3)(C1)C2)c1ccn([C@H]2C[C@@H](OC(F)(F)F)C2)n1 (single isomer, unassigned) [Example 108, 1-[cis-3-(trifluoromethoxy)cyclobutyl]-N-[3-[5-[cis-3-(trifluoromethoxy)cyclobutyl]-1,3,4-oxadiazol-2-yl]-1-bicyclo[1.1.1]pentanyl]pyrazole-3-carboxamide]
C[C@H]1C[C@@H]1c1nnc(C23CC(NC(=O)COc4ccc(Cl)c(F)c4)(C2)C3)o1 (single isomer, unassigned) [Example 112, 2-(4-chloro-3-fluoro-phenoxy)-N-[1-[5-[2-methylcyclopropyl]-1,3,4-oxadiazol-2-yl]-3-bicyclo[1.1.1]pentanyl]acetamide]
O=C(NC12CC(c3nnc([C@H]4C[C@@H](OC(F)(F)F)C4)o3)(C1)C2)C1CCc2cc(Cl)ccc2O1 (single isomer, unassigned) [Example 157, 6-chloro-N-(3-(5-(3-cis-(trifluoromethoxy)cyclobutyl)-1,3,4-oxadiazol-2-yl)bicyclo[1.1.1]pentan-1-yl)chroman-2-carboxamide]
O=C(NC12CC(c3nnc([C@H]4C[C@@H](OC(F)(F)F)C4)o3)(C1)C2)C1CCc2cc(F)ccc2O1 (single isomer, unassigned) [Example 159]
O=C(COc1ccc(Cl)c(F)c1)NC12CC(N3C[C@H](C4CC(OC(F)(F)F)C4)OC3=O)(C1)C2 (single isomer, unassigned) [Example 206]
O=C(COc1ccc(Cl)c(F)c1)NC12CC(N3C[C@@H](C4CC(OC(F)(F)F)C4)OC3=O)(C1)C2 (single isomer, unassigned) [Example 208]
N#CC1CC([C@H]2CN(C34CC(NC(=O)COc5ccc(Cl)c(F)c5)(C3)C4)C(=O)O2)C1 (single isomer, unassigned) [Example 218]
O=C(COc1ccc(Cl)cc1)NC12CC(c3nnc([C@H]4C[C@@H](OC(F)(F)F)C4)o3)(C1)C2 [Example 3, 2-(4-chlorophenoxy)-N-[3-[5-[cis-3-(trifluoromethoxy)cyclobutyl]-1,3,4-oxadiazol-2-yl]-1-bicyclo[1.1.1]pentanyl]acetamide]
O=C(COc1ccc(Cl)cc1)NC12CC(c3nnc(COC4CCC4)o3)(C1)C2 [Example 5, 2-(4-Chlorophenoxy)-N-[1-[5-(cyclobutoxymethyl)-1,3,4-oxadiazol-2-yl]-3-bicyclo[1.1.1]pentanyl]acetamide]
O=C(COc1ccc(Cl)c(F)c1)NC12CC(c3nnc([C@H]4C[C@@H](OC(F)(F)F)C4)o3)(C1)C2 [Example 6, 2-(4-chloro-3-fluoro-phenoxy)-N-[1-[5-[cis-3-(trifluoromethoxy)cyclobutyl]-1,3,4-oxadiazol-2-yl]-3-bicyclo[1.1.1]pentanyl]acetamide]
CC(CC(F)F)c1nnc(C23CC(NC(=O)COc4ccc(Cl)c(F)c4)(C2)C3)o1 (stereo not shown) [Example 7, 2-(4-chloro-3-fluoro-phenoxy)-N-[1-[5-(3,3-difluoro-1-methyl-propyl)-1,3,4-oxadiazol-2-yl]-3-bicyclo[1.1.1]pentanyl]acetamide]
CC(c1nnc(C23CC(NC(=O)COc4ccc(Cl)c(F)c4)(C2)C3)o1)C1CC1 (stereo not shown) [Example 8, 2-(4-chloro-3-fluoro-phenoxy)-N-[1-[5-(1-cyclopropylethyl)-1,3,4-oxadiazol-2-yl]-3-bicyclo[1.1.1]pentanyl]acetamide]
O=C(COc1ccc(Cl)c(F)c1)NC12CC(c3nnc(C4(F)CC4)o3)(C1)C2 [Example 10, 2-(4-chloro-3-fluoro-phenoxy)-N-[1-[5-(1-fluorocyclopropyl)-1,3,4-oxadiazol-2-yl]-3-bicyclo[1.1.1]pentanyl]acetamide]

Same assay, conditions: read-out: Activity (IC50); H4 ATF4-NLuc (clone 17) cells; compound 30 minutes, then 50 um sodium arsenite for 6 hours; luminescence readout

IC50, > 10000 nM:
O=C(COC1CC(OC(F)(F)F)C1)NC12CC(c3nnc(C4C[C@H]4COC(F)(F)F)o3)(C1)C2 (single isomer, unassigned) [Example 90, 2-[cis-3-(trifluoromethoxy)cyclobutoxy]-N-[3-[5-[cis-2-(trifluoromethoxymethyl)cyclopropyl]-1,3,4-oxadiazol-2-yl]-1-bicyclo[1.1.1]pentanyl]acetamide]

IC50, < 1000 nM:
O=C(COC1CC(OC(F)(F)F)C1)NC12CC(c3nnc(C4C[C@H]4COC(F)(F)F)o3)(C1)C2 (single isomer, unassigned) [Example 91, 2-[3-cis-(trifluoromethoxy)cyclobutoxy]-N-[3-[5-[2-trans-(trifluoromethoxymethyl)cyclopropyl]-1,3,4-oxadiazol-2-yl]-1-bicyclo[1.1.1]pentanyl]acetamide]
C[C@H]1C[C@@H]1c1nnc(C23CC(NC(=O)COc4ccc(Cl)c(F)c4)(C2)C3)o1 (single isomer, unassigned) [Example 113, 2-(4-chloro-3-fluoro-phenoxy)-N-[1-[5-[2-methylcyclopropyl]-1,3,4-oxadiazol-2-yl]-3-bicyclo[1.1.1]pentanyl]acetamide]
O=C(NC12CC(c3nnc([C@H]4C[C@@H](OC(F)(F)F)C4)o3)(C1)C2)C1CCc2cc(Cl)ccc2O1 (single isomer, unassigned) [Example 158, 6-chloro-N-(3-(5-(3-cis-(trifluoromethoxy)cyclobutyl)-1,3,4-oxadiazol-2-yl)bicyclo[1.1.1]pentan-1-yl)chroman-2-carboxamide]
O=C(NC12CC(c3nnc([C@H]4C[C@@H](OC(F)(F)F)C4)o3)(C1)C2)C1CCc2cc(F)ccc2O1 (single isomer, unassigned) [Example 160]
O=C(COc1ccc(Cl)c(F)c1)NC12CC(N3C[C@@H](C4CC(OC(F)(F)F)C4)OC3=O)(C1)C2 (single isomer, unassigned) [Example 209]
